From ChEMBL document CHEMBL3301361, “Experimental in vitro DMPK and physicochemical data on a set of publicly disclosed compounds”
Converted amounts (≈) assume the structure as drawn.

Columns and labels:
physchem [1] = experiment: physchem
physchem [2] = settings: octan-1-ol/water
in vitro [3] = settings: human, plasma, PPB
physchem [4] = settings: pH 7.4 buffer
in vitro [5] = settings: human
in vitro [6] = settings: hepatocytes
in vitro [7] = settings: SD, HW or BN, rat, plasma

Structure (SMILES) | pKa (physchem [1]) | logD (physchem [2]; pH 7.4, LogD7.4) | further results
Cc1ccnc(NCc2ccccc2O)c1 | 6.8 | 3.35 | 
N#Cc1ccc(C(=O)N2CCC3(CC2)N=C(N)c2c(F)ccc(F)c2N3)cn1 | 8.4 | 0.79 | fraction unbound at 5 h (in vitro [3]): 0.134
CC(C)(C)c1ccc(C(O)CCCN2CCC(C(O)(c3ccccc3)c3ccccc3)CC2)cc1 (configuration not stated) [TERFENADINE] | 8.8 | 3.99 | fraction unbound at 5 h (in vitro [3]): 0.0084; solubility thermodynamic (physchem [4]): 5.4 µM (≈ 2.55 µg/mL)
C[C@H]1CN=C(N)c2sccc2O1 | 11 |  | microsomal CLint (in vitro [5]; microsomes): 7 µL/min/mg
COc1cccc(C(=O)NCCN2CCC(Oc3ccc(Cl)c(Cl)c3)CC2)c1 | 7.4 |  | fraction unbound at 5 h (in vitro [3]): 0.0008; microsomal CLint (in vitro [5]; liver microsomes): 9 µL/min/mg; solubility thermodynamic (physchem [4]): 9.5 µM (≈ 4.02 µg/mL)
CNCC[C@@H](Oc1cc(OC)ccc1C#N)c1ccccc1 | 10.2 | 0.87 | hepatocyte CLint (in vitro [6]): 142 µL/min/1e6 cells; microsomal CLint (in vitro [5]; liver microsomes): 26 µL/min/mg
CON(C)C(=O)c1c(Cn2c(C)nc(Cl)c2Cl)sc2c1c(=O)n(C)c(=O)n2CC(C)C | 2.7 | 2.23 | solubility thermodynamic (physchem [4]): 513 µM (≈ 250 µg/mL)
COc1ccc(OC)c(CNc2[nH]nc3cccc(Oc4ccccc4)c23)c1 | 3.8 |  | microsomal CLint (in vitro [5]; liver microsomes): 11 µL/min/mg
CCc1cc(C(N)=S)ccn1 [ETHIONAMIDE] | 4.4 | 1.52 | fraction unbound at 5 h (in vitro [7]): 0.54
Cc1ncc([N+](=O)[O-])n1CCO [METRONIDAZOLE] | 2.51 | -0.11 | 
CC(=O)Nc1ccc(CNc2[nH]nc3ccnc(Oc4ccccc4)c23)cc1 | 3.2 | 3.03 | microsomal CLint (in vitro [5]; liver microsomes): 12 µL/min/mg
Nc1nc2ccccc2[nH]1 | 7.2 |  | microsomal CLint (in vitro [5]; liver microsomes): < 3 µL/min/mg
O=C(NCC12CC3CC(CC(C3)C1)C2)c1cc(OC2CCNCC2)ncc1Cl | 9.1 | 1.56 | 
O=C(CN1C2=NCCN2c2ccccc21)c1ccc(Cl)cc1 | 9.1 | 2.62 | fraction unbound at 5 h (in vitro [3]): 0.339; microsomal CLint (in vitro [5]; microsomes): 4 µL/min/mg
O=C(NCC12CC3CC(CC(C3)C1)C2)c1cc(CC2CCNCC2)ccc1Cl | 10.1 | 1.49 | fraction unbound at 5 h (in vitro [3]): 0.0872
CCOCc1nc2c(N)nc3ccccc3c2n1CC(C)(C)O [RESIQUIMOD] | 7.1 | 1.69 | fraction unbound at 5 h (in vitro [7]): 0.574; solubility thermodynamic (physchem [4]): 417 µM (≈ 131 µg/mL)
CCOC(=O)N1CCC(Nc2cc(OC)ccn2)CC1 | 7.2 |  | microsomal CLint (in vitro [5]; liver microsomes): 4 µL/min/mg
Cc1ccc(C(=O)N2CC3CNCC(C2)O3)cc1NC(=O)CC12CC3CC(CC(C3)C1)C2 | 7.18 | 2.12 | hepatocyte CLint (in vitro [6]): 16.2 µL/min/1e6 cells; microsomal CLint (in vitro [5]; microsomes): 71.2 µL/min/mg
CCCCc1nc2c(N)nc3ccccc3c2n1CC(C)C | 7.3 | 3.82 | fraction unbound at 5 h (in vitro [3]): 0.062; fraction unbound at 5 h (in vitro [7]): 0.0307; microsomal CLint (in vitro [5]; liver microsomes): < 3 µL/min/mg
CCC(CCNC)Oc1cc(Cl)ccc1C#N (configuration not stated) | 10.1 | 0.38 | microsomal CLint (in vitro [5]; liver microsomes): < 3 µL/min/mg
CC12CC3CC(C)(C1)CC(N)(C3)C2 [MEMANTINE] | 10.7 | 0.06 | 
O=C(CCCN1CCC(O)(c2ccc(Cl)cc2)CC1)c1ccc(F)cc1 [HALOPERIDOL] | 8.75 | 2.67 | fraction unbound at 5 h (in vitro [7]): 0.186; solubility thermodynamic (physchem [4]): 50.1 µM (≈ 18.8 µg/mL)

Structure (SMILES) | pKa (physchem [1]) | logD (physchem [2]; pH 7.4, LogD7.4) | further results
CNCC[C@@H](Oc1cc(Cl)ccc1C#N)c1ccccc1 | 9.9 |  | hepatocyte CLint (in vitro [6]): > 150 µL/min/1e6 cells
CN(C)CCC=C1c2ccccc2COc2ccccc21 [DOXEPIN] | 8.5 | 2.15 | 
CCN(CC)C(C)C(=O)c1ccccc1 (configuration not stated) [DIETHYLPROPION] | 8.8 |  | logD (physchem [2]; pH 7.4): 1.18
CN1CCC(=C2c3ccccc3CC(=O)c3sccc32)CC1 [KETOTIFEN] | 9 |  | 
c1ccc(SCc2ccccn2)cc1 | 3.8 |  | 
COc1ccccc1CNc1cc(C)ccn1 | 7.1 | 3.28 | 
COc1ccc(C2(c3cccc(-c4cncnc4)c3)N=C(C)C(N)=N2)cc1C (configuration not stated) | 5.83 |  | fraction unbound at 5 h (in vitro [3]): 0.062; fraction unbound at 5 h (in vitro [7]): 0.271
c1ccc2c(CC3=NCCN3)cccc2c1 [NAPHAZOLINE] | 10.3 |  | 
NC1=NC(c2ccco2)Nc2c(F)ccc(F)c21 (configuration not stated) | 8.2 | 1.2 | 
N#Cc1ccc(C(=O)N2CCC3(CC2)N=C(N)c2c(F)cccc2N3)cc1 | 9 | 0.66 | 
NC1=NC(c2cccs2)Nc2cccc(F)c21 (configuration not stated) | 8.73 | 0.91 | 
NCC(Oc1cc(Cl)ccc1Cl)c1ccccc1 (configuration not stated) | 8.5 |  | 
O=C(O)COc1ccc(Cl)cc1CN1CCC(S(=O)(=O)c2ccccc2)CC1 | 7.8 | 0.48 | 
O=C(NCC12CC3CC(CC(C3)C1)C2)c1cc(OCCCNCCCO)ccc1Cl | 9.5 | 1.41 | microsomal CLint (in vitro [5]; liver microsomes): 27 µL/min/mg
COc1ccnc(NC2CCN(C(=O)c3ccc(Cl)cc3)CC2)c1 | 7.2 | 2.82 | 
Nc1ccc(OCC(=O)O)c(-c2ccccc2)c1 | 5.1 |  | microsomal CLint (in vitro [5]; liver microsomes): < 3 µL/min/mg
N#Cc1ccc(C(=O)N2CCC3(CC2)N=C(N)c2c(F)ccc(F)c2N3)cc1 | 8.15 | 0.86 | fraction unbound at 5 h (in vitro [3]): 0.285
Cn1c([S+]([O-])Cc2ccccn2)nc2ccccc21 (configuration not stated) | 2.6 |  | 
O=S(=O)(c1ccccc1)N1CCN(Cc2ccccc2)CC1 | 5.6 |  | hepatocyte CLint (in vitro [6]): > 150 µL/min/1e6 cells; microsomal CLint (in vitro [5]; liver microsomes): 64 µL/min/mg
CCOC(=O)N1CCC(Nc2cc(Cl)ccn2)CC1 | 5.3 |  | 
c1ccc(CSc2nc3ccccc3o2)nc1 | 4.3 |  | 
Cc1cc(C)nc(N)c1 | 7.7 | 0.85 | 

Structure (SMILES) | pKa (physchem [1]) | logD (physchem [2]; pH 7.4, LogD7.4) | further results
C[C@H](CO)Nc1nc(SCc2cccc(F)c2F)nc2nc(N)cnc12 | 4.2 | 2.89 | fraction unbound at 5 h (in vitro [3]): 0.0447; microsomal CLint (in vitro [5]; liver microsomes): 12 µL/min/mg
c1ccc2c(c1)CCCC2C1=NCCN1 (configuration not stated) [TETRAHYDROZOLINE] | 10.6 |  | 
COc1ccnc(NC2CCN(C(=O)c3ccccc3)CC2)c1 | 6.85 | 2.06 | microsomal CLint (in vitro [5]; liver microsomes): < 3 µL/min/mg
CCOC(=O)N1CCC2(CC1)N=C(N)c1sccc1N2 | 10.5 |  | 
CCc1ncc[nH]1 | 7.8 |  | 
CC(C)(C)NC(=O)[C@@H]1C[C@@H]2CCCC[C@@H]2CN1C[C@@H](O)[C@H](Cc1ccccc1)NC(=O)[C@H](CC(N)=O)NC(=O)c1ccc2ccccc2n1 | 7.14 |  | fraction unbound at 5 h (in vitro [3]): 0.0114; fraction unbound at 5 h (in vitro [7]): 0.0048; solubility thermodynamic (physchem [4]): 36.3 µM (≈ 24.4 µg/mL)
c1ccc(CSc2nc3ccccc3[nH]2)cc1 | 4.2 |  | 
Cc1nc2n(c(=O)c1CCN1CCC(c3noc4cc(F)ccc34)CC1)CCCC2 [RISPERIDONE] | 8.49 |  | fraction unbound at 5 h (in vitro [7]): 0.0544; logD (physchem [2]; pH 7.4): 2.05
CNCC[C@@H](Oc1cc(C(F)(F)F)ccc1C#N)c1ccccc1 | 10.4 | 1.3 | microsomal CLint (in vitro [5]; microsomes): < 3 µL/min/mg
NC1=NC(c2ccco2)Nc2ccccc21 (configuration not stated) | 9.13 |  | 
Cc1cc(N)nc(CCNC(=O)c2ccc(C#N)cc2)c1 | 7.1 | 1.62 | solubility thermodynamic (physchem [4]): 64.6 µM (≈ 18.1 µg/mL)
O=C(NCC12CC3CC(CC(C3)C1)C2)c1ccnc(N2CCNCC2)c1Cl | 8.7 |  | hepatocyte CLint (in vitro [6]): 7.2 µL/min/1e6 cells; microsomal CLint (in vitro [5]; liver microsomes): 73 µL/min/mg
O=C(O)COc1ccc(C(F)(F)F)cc1CN1CCN(C(=O)c2ccccc2)CC1 | 6.9 |  | hepatocyte CLint (in vitro [6]): < 3 µL/min/1e6 cells; microsomal CLint (in vitro [5]; liver microsomes): 4.7 µL/min/mg
CCOC(=O)N1CCC(Nc2ccccn2)CC1 | 6.6 |  | 
Cc1ccnc(NCc2ccccc2)c1 | 7 | 3.08 | 
CN(C)CCn1cnc2c1c(=O)n(C)c(=O)n2C [DIMETHAZAN] | 7.5 |  | 
C=CCOc1ccccc1OCC(O)CNC(C)C (configuration not stated) [OXPRENOLOL] | 9.69 | 0.2 | 
CCc1nc2c(C)cc(C)nc2[nH]1 | 5.5 |  | 
NC1=NC(C2CC2)Cc2ccccc21 (configuration not stated) | > 11 |  | 
NC1=NC(c2ccccc2)Nc2ccccc21 (configuration not stated) | 9.83 |  | 
Cc1ccnc(N)c1N | 7.2 |  | 
N#Cc1ccc(Cl)cc1O[C@H](CCN)c1ccccc1 | 10.3 | 0.76 | microsomal CLint (in vitro [5]; liver microsomes): 4 µL/min/mg
